In ChEMBL document CHEMBL1201862, “PubChem BioAssay data set” (2004):
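48-hour exposure; five concentrations; linearly interpolated endpoints. Abbreviation: GI50, concentration required for 50% inhibition of growth.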 Calls of active or inactive are those of the source. Rule as the data show it: active = GI50 up to about 1.1 µM and inactive = higher.

Columns and labels:
Assay in all cases: NCI tumour cell line growth inhibition, 48 h
A549 = system: A549
HCT-116 = system: HCT-116
SK-MEL-5 = system: SK-MEL-5
EKVX = system: EKVX
SR = system: SR
MDA-MB-231 = system: MDA-MB-231
NCI-H23 = system: NCI-H23
HCT-15 = system: HCT-15
SF-295 = system: SF-295
T47D = system: T47D
LOX IMVI = system: LOX IMVI
CCRF-CEM = system: CCRF-CEM
OVCAR-8 = system: OVCAR-8
SK-MEL-28 = system: SK-MEL-28
RXF 393 = system: RXF 393
SNB-75 = system: SNB-75
COLO 205 = system: COLO 205
SNB-19 = system: SNB-19
U-251 = system: U-251
MCF7 = system: MCF7
HOP-62 = system: HOP-62
HL-60 = system: HL-60
NCI-H522 = system: NCI-H522
ACHN = system: ACHN
A498 = system: A498
OVCAR-3 = system: OVCAR-3
OVCAR-5 = system: OVCAR-5
PC-3 = system: PC-3
MOLT-4 = system: MOLT-4
HCC 2998 = system: HCC 2998
NCI-H460 = system: NCI-H460
SF-268 = system: SF-268
HT-29 = system: HT-29
RPMI-8226 = system: RPMI-8226
SW-620 = system: SW-620
KM12 = system: KM12
786-0 = system: 786-0
Hs-578T = system: Hs-578T
SK-OV-3 = system: SK-OV-3
SK-MEL-2 = system: SK-MEL-2
TK-10 = system: TK-10
UO-31 = system: UO-31
MDA-MB-435 = system: MDA-MB-435
UACC-62 = system: UACC-62
BT-549 = system: BT-549
IGROV-1 = system: IGROV-1
K562 = system: K562
CAKI-1 = system: CAKI-1
M14 = system: M14
DU-145 = system: DU-145
UACC-257 = system: UACC-257
NCI-H226 = system: NCI-H226
HOP-92 = system: HOP-92
SF-539 = system: SF-539
NCI/ADR-RES = system: NCI/ADR-RES
MDA-N = system: MDA-N
SN12C = system: SN12C
OVCAR-4 = system: OVCAR-4
Malme-3M = system: Malme-3M

## O=C(CCc1cc(O)cc(O)c1)NCCc1cc(OCc2ccccc2)cc(OCc2ccccc2)c1
A549
  GI50: 5.28 µM (inactive)
HCT-116
  GI50: 12.9 µM (inactive)
SK-MEL-5
  GI50: 10.6 µM (inactive)
EKVX
  GI50: 7.24 µM (inactive)
SR
  GI50: 4.83 µM (inactive)
MDA-MB-231
  GI50: 10.3 µM (inactive)
NCI-H23
  GI50: 10.4 µM (inactive)
HCT-15
  GI50: 14.7 µM
SF-295
  GI50: 10.4 µM (inactive)
T47D
  GI50: 11.2 µM (inactive)
LOX IMVI
  GI50: 11.5 µM (inactive)
CCRF-CEM
  GI50: 7.8 µM (inactive)
OVCAR-8
  GI50: 13.7 µM (inactive)
SK-MEL-28
  GI50: 17.5 µM (inactive)
RXF 393
  GI50: 8.55 µM (inactive)
SNB-75
  GI50: 11 µM (inactive)
COLO 205
  GI50: 20.5 µM (inactive)
SNB-19
  GI50: 2.41 µM (inactive)
U-251
  GI50: 13 µM (inactive)
MCF7
  GI50: 4.92 µM (inactive)
HOP-62
  GI50: 16.4 µM (inactive)
HL-60
  GI50: 2.7 µM (inactive)
NCI-H522
  GI50: 11.9 µM (inactive)
ACHN
  GI50: 3.4 µM (inactive)
A498
  GI50: 21.2 µM (inactive)
OVCAR-3
  GI50: 14.7 µM (inactive)
OVCAR-5
  GI50: 20.2 µM (inactive)
PC-3
  GI50: 8.89 µM (inactive)
MOLT-4
  GI50: 5.35 µM (inactive)
HCC 2998
  GI50: 19.6 µM (inactive)
NCI-H460
  GI50: 4.68 µM (inactive)
SF-268
  GI50: 15 µM (inactive)
HT-29
  GI50: 14.8 µM (inactive)
RPMI-8226
  GI50: 7.45 µM (inactive)
SW-620
  GI50: 15.8 µM (inactive)
KM12
  GI50: 12.6 µM (inactive)
786-0
  GI50: 18.7 µM (inactive)
Hs-578T
  GI50: 16.8 µM (inactive)
SK-OV-3
  GI50: 16.8 µM (inactive)
SK-MEL-2
  GI50: 10.2 µM (inactive)
TK-10
  GI50: 21.4 µM (inactive)
UO-31
  GI50: 3.55 µM (inactive)
MDA-MB-435
  GI50: 11.1 µM (inactive)
UACC-62
  GI50: 16.9 µM (inactive)
BT-549
  GI50: 16.4 µM (inactive)
IGROV-1
  GI50: 15.5 µM (inactive)
K562
  GI50: 4.8 µM (inactive)
CAKI-1
  GI50: 19.2 µM (inactive)
M14
  GI50: 13.2 µM (inactive)
DU-145
  GI50: 15.8 µM (inactive)
UACC-257
  GI50: 23.6 µM (inactive)
NCI-H226
  GI50: 15.9 µM (inactive)
HOP-92
  GI50: 17.1 µM (inactive)
SF-539
  GI50: 16.2 µM (inactive)
NCI/ADR-RES
  GI50: 17.8 µM (inactive)
MDA-N
  GI50: 13.7 µM (inactive)
SN12C
  GI50: 14.9 µM (inactive)

## C=CCc1cccc2cc(C(=O)NCc3ccccc3)c(=N)oc12
A549
  GI50: 40.1 µM (inactive)
HCT-116
  GI50: 24.2 µM (inactive)
SK-MEL-5
  GI50: 25.5 µM (inactive)
EKVX
  GI50: 26.1 µM (inactive)
SR
  GI50: > 100 µM (inactive)
MDA-MB-231
  GI50: 30.6 µM (inactive)
NCI-H23
  GI50: 31.9 µM (inactive)
HCT-15
  GI50: 32.2 µM
T47D
  GI50: 24.5 µM (inactive)
LOX IMVI
  GI50: 42.7 µM (inactive)
CCRF-CEM
  GI50: 32.6 µM (inactive)
OVCAR-8
  GI50: 43.9 µM (inactive)
SK-MEL-28
  GI50: 30.7 µM (inactive)
RXF 393
  GI50: 46.3 µM (inactive)
SNB-75
  GI50: 31.3 µM (inactive)
COLO 205
  GI50: 40.6 µM (inactive)
SNB-19
  GI50: 29.9 µM (inactive)
U-251
  GI50: 38.2 µM (inactive)
MCF7
  GI50: 47.8 µM (inactive)
HOP-62
  GI50: 38.5 µM (inactive)
HL-60
  GI50: 25.3 µM (inactive)
NCI-H522
  GI50: 18.1 µM (inactive)
ACHN
  GI50: 19.9 µM (inactive)
A498
  GI50: 23.4 µM (inactive)
OVCAR-3
  GI50: 20.7 µM (inactive)
OVCAR-5
  GI50: 54 µM (inactive)
PC-3
  GI50: 18.6 µM (inactive)
OVCAR-4
  GI50: 41.4 µM (inactive)
MOLT-4
  GI50: > 100 µM (inactive)
HCC 2998
  GI50: 25.1 µM (inactive)
NCI-H460
  GI50: 28.5 µM (inactive)
SF-268
  GI50: 36.1 µM (inactive)
HT-29
  GI50: 34.4 µM (inactive)
RPMI-8226
  GI50: 79.8 µM (inactive)
SW-620
  GI50: 49.4 µM (inactive)
KM12
  GI50: 34.4 µM (inactive)
786-0
  GI50: 29.1 µM (inactive)
Hs-578T
  GI50: 18.8 µM (inactive)
SK-OV-3
  GI50: 46.2 µM (inactive)
SK-MEL-2
  GI50: 12.1 µM (inactive)
MDA-MB-435
  GI50: 25.8 µM (inactive)
UACC-62
  GI50: 22.8 µM (inactive)
BT-549
  GI50: 40.3 µM (inactive)
IGROV-1
  GI50: 24.9 µM (inactive)
K562
  GI50: > 100 µM (inactive)
CAKI-1
  GI50: 37 µM (inactive)
M14
  GI50: 40.6 µM (inactive)
DU-145
  GI50: 37.1 µM (inactive)
UACC-257
  GI50: 89.3 µM (inactive)
NCI-H226
  GI50: 24.2 µM (inactive)
HOP-92
  GI50: 48.5 µM (inactive)
SF-539
  GI50: 47.5 µM (inactive)
NCI/ADR-RES
  GI50: 34.2 µM (inactive)
Malme-3M
  GI50: 19.4 µM (inactive)
MDA-N
  GI50: 41.4 µM (inactive)
SN12C
  GI50: 27.6 µM (inactive)

## N=c1c2c(=S)n(-c3ccccc3)c(=S)n(-c3ccccc3)c2nc(SCCN2CCOCC2)n1-c1ccccc1
A549
  GI50: 1.78 µM (inactive)
HCT-116
  GI50: 1.85 µM (inactive)
SK-MEL-5
  GI50: 2.73 µM (inactive)
EKVX
  GI50: 3.16 µM (inactive)
SR
  GI50: 0.475 µM (active)
MDA-MB-231
  GI50: 2.12 µM (inactive)
NCI-H23
  GI50: 2.67 µM (inactive)
HCT-15
  GI50: 1.91 µM
SF-295
  GI50: 7.19 µM (inactive)
T47D
  GI50: 2.69 µM (inactive)
LOX IMVI
  GI50: 1.71 µM (inactive)
CCRF-CEM
  GI50: 1.38 µM (inactive)
OVCAR-8
  GI50: 2.06 µM (inactive)
SK-MEL-28
  GI50: 2.1 µM (inactive)
RXF 393
  GI50: 1.79 µM (inactive)
SNB-75
  GI50: 2.07 µM (inactive)
COLO 205
  GI50: 1.99 µM (inactive)
SNB-19
  GI50: 10.4 µM (inactive)
U-251
  GI50: 1.99 µM (inactive)
MCF7
  GI50: 1.35 µM (inactive)
HOP-62
  GI50: 2.12 µM (inactive)
HL-60
  GI50: 1.41 µM (inactive)
NCI-H522
  GI50: 1.67 µM (inactive)
ACHN
  GI50: 1.87 µM (inactive)
A498
  GI50: 3.52 µM (inactive)
OVCAR-3
  GI50: 1.8 µM (inactive)
OVCAR-5
  GI50: 18.4 µM (inactive)
PC-3
  GI50: 1.85 µM (inactive)
OVCAR-4
  GI50: 1.76 µM (inactive)
MOLT-4
  GI50: 1.46 µM (inactive)
HCC 2998
  GI50: 1.77 µM (inactive)
NCI-H460
  GI50: 2.49 µM (inactive)
SF-268
  GI50: 1.79 µM (inactive)
HT-29
  GI50: 2.05 µM (inactive)
RPMI-8226
  GI50: 1.04 µM (active)
SW-620
  GI50: 1.91 µM (inactive)
KM12
  GI50: 2.44 µM (inactive)
786-0
  GI50: 1.76 µM (inactive)
Hs-578T
  GI50: 2.67 µM (inactive)
SK-OV-3
  GI50: 6.1 µM (inactive)
SK-MEL-2
  GI50: 2.86 µM (inactive)
TK-10
  GI50: 1.71 µM (inactive)
MDA-MB-435
  GI50: 1.82 µM (inactive)
UACC-62
  GI50: 1.81 µM (inactive)
BT-549
  GI50: 1.98 µM (inactive)
IGROV-1
  GI50: 1.76 µM (inactive)
K562
  GI50: 1.47 µM (inactive)
CAKI-1
  GI50: 1.94 µM (inactive)
M14
  GI50: 1.93 µM (inactive)
DU-145
  GI50: 1.83 µM (inactive)
UACC-257
  GI50: 2.11 µM (inactive)
NCI-H226
  GI50: 7.13 µM (inactive)
HOP-92
  GI50: 1.82 µM (inactive)
SF-539
  GI50: 3.83 µM (inactive)
NCI/ADR-RES
  GI50: 3.67 µM (inactive)
Malme-3M
  GI50: 1.66 µM (inactive)
MDA-N
  GI50: 2.26 µM (inactive)
SN12C
  GI50: 2.06 µM (inactive)
